The text below walks through data of publication PMC12040169 (PLOS Biology, 2025).

This data set can be described thus: in vitro. The note with it: human, hela cells, % viability.

Molecules are shown by their SMILES.

With `CN1C(=O)CC2(C1=O)C(=O)N(Cc1nc(-c3ccc(Cl)cc3)no1)c1ccc(F)cc12` (stereo not shown) [CBK075442], the viability (usually a read-out of living cells in per cent, often relative to untreated cells) at 28.5 h, 10 µM was 87.8%. Still for that read-out and setting: the same measure for `Cc1cc(C)n(CCCC(=O)N2CCC3(CCCO3)CC2)n1` [CBK304397]: 102%; for `CCCN1CCN(Cc2cccc3c2ccn3S(=O)(=O)c2cccs2)CC1` [CBK116196T]: 92%. Take `CC(C)(N)CN(Cc1ccccc1)C(=O)/C=C/c1ccccc1` [CBK013891T]: the viability at 28.5 h, 10 µM amounted to 90.8%.

With `CN1CCC(OCCCn2ccnc2-c2ccccc2C(=O)O)CC1` [CBK307188], the viability at 28.5 h, 10 µM amounted to 87%. Consider `O=C(Nc1cnc(-c2cccc(OC(F)(F)F)c2)c(-c2cccnc2)n1)c1ccccn1` [CBK036837], for which the viability at 28.5 h, 10 µM came to 99.2%.

Take `CC(C)Nc1nc2ccccc2nc1OCCCN(C)C` [CBK113416]: the viability at 28.5 h, 10 µM turned out to be 108%. The same measure, in the same setting: the same measure for `O=C(c1ccncc1)N1C[C@H]2CCc3c(n[nH]c3C(F)(F)F)[C@H]2C1` [CBK282110]: 87.3%. `Cc1nn(CCNC(=O)C2CC3C=CC2C32CC2)c(C)c1Cl` (stereo not shown) [CBK281429]: the viability at 28.5 h, 10 µM was 90.8%. `Clc1ccc(N2CCN(c3cnc4ccccc4n3)CC2)cc1Cl` [CBK066903]: the viability at 28.5 h, 10 µM turned out to be 97.8%.

Take `CC(C)(C)OC(=O)N1CCC2(CC1)NC(=O)c1cc(-c3cccnc3)ccc1O2` [CBK083517]: the viability at 28.5 h, 10 µM is 94.1%. Consider `Cc1csc(-c2cn3ccnc3c(N(C)CCN(C)C)n2)c1` [CBK066553], for which the viability at 28.5 h, 10 µM worked out at 96.3%. Consider `Cc1cc(-n2cccn2)ccc1CN1CCCCC1CN1CCOCC1` (stereo not shown) [CBK307442], for which the viability at 28.5 h, 10 µM was 83.2%. For the molecule `O=C(O)c1ccc2c(c1)C(=O)N(Cc1cccc(CN3C(=O)c4ccc(C(=O)O)cc4C3=O)c1)C2=O` [CBK265556], the viability at 28.5 h, 10 µM amounted to 113%. In the case of `CCC12CN3CC(CC)(CN(C1)C3c1ccc([N+](=O)[O-])cc1)C2=O` (stereo not shown) [CBK263689], the viability at 28.5 h, 10 µM came to 108%.

As for `Nc1nc2c(nc(Br)n2[C@H]2C[C@@H](O)[C@@H](CO)O2)c(=O)[nH]1` [CBK201333], the viability at 28.5 h, 10 µM was found to be 108%.

Take `O=C(NCCOc1ccccc1)N1CCN(c2ccc(F)cc2)CC1` [CBK156416]: the viability at 28.5 h, 10 µM turned out to be 92.7%. Consider `CCOC(=O)c1cnc2c(C)cc(C)cc2c1NCCCN(C)C` [CBK266021], for which the viability at 28.5 h, 10 µM came out at 76.5%. The same measure, in the same setting: next, `COc1ccc(CC(=O)N2C3CCC2CC(O)(c2ccco2)C3)cc1` (stereo not shown) [CBK284137]: 92.5%. On the same count and under the same terms, next, `CC(=O)Nc1onc(C)c1-c1nc(-c2ccc(Cl)cc2Cl)cs1` [CBK067735]: 101%; `O=C(Nc1c(F)cc(F)cc1OC1CCNCC1)c1cnccn1` [CBK050273T]: 100%. In the case of `O=C(NCc1ccco1)c1ccc2c(c1)OCO2` [CBK262133], the viability at 28.5 h, 10 µM was 94.4%. As for `Cc1c(Cl)cccc1CNC(=O)CC1SC(NCC2CCCCC2)=NC1=O` (stereo not shown) [CBK067017], the viability at 28.5 h, 10 µM came out at 91.7%. As to `Cc1nccn1CC1(O)CCN(C(=O)CCc2ccccc2F)CC1` [CBK284689], the viability at 28.5 h, 10 µM stood at 96.6%. As for `CCn1ncc(CN2CCC(c3onc4c3CCCC4)CC2)c1C` [CBK284576], the viability at 28.5 h, 10 µM stood at 90.2%. Turning to `COC(=O)CC1C(=O)NCCN1C(=S)NC(=O)c1ccc(-c2ccccc2)cc1` (stereo not shown) [CBK268711], the viability at 28.5 h, 10 µM stood at 105%.

As to `O=C(N[C@@H](Cn1ccc(=O)[nH]c1=O)C(=O)O)C1CCCCC1` [CBK289651], the viability at 28.5 h, 10 µM was determined as 85.8%. Still for that read-out and setting: next, `O=C(O)c1cc(NC(=O)c2ccc3c(c2)C(=O)N(Cc2cccnc2)C3=O)cc(C(=O)O)c1` [CBK266761]: 108%.

As to `Cc1nocc1C(=O)N1CCC2(CC1)OCc1ccccc1O2` [CBK061470], under “bulk resorufin, single well”, the viability at 28.5 h, 10 µM was found to be 105%. As for `COC(=O)c1ccc(NC(=O)Cn2nnc(-c3ccc(CN4CCOCC4)cc3)n2)cc1` [CBK134589], the viability at 28.5 h, 10 µM came to 95.4%. For `CSc1cc(C)c(O)c(CO)c1` [CBK020687], the viability at 28.5 h, 10 µM is 85.7%.
